According to patent US10251824B2, “Method for inducing pluripotent stem cells and pluripotent stem cells prepared by said method” (AMOREPACIFIC CORPORATION, priority 2013, dated 2019):

Assays:
[1] = system: alkaline phosphatase (ALP); conditions: 5 μg/mL shikimic acid; day 11
Description: Untreated NHDF-Neonatal were used as a negative control group. On day 6 after the treatment, the cells (5,000 cells) were attached on a 12-well plate. 5 days later, i.e., on day 11, the cells were fixed with 3.8% formaldehyde in PBS and kept at room temperature for 15 minutes. Then, the cells were treated with 200 μL of the NBT/BCIP® ALP substrate solution diluted in 10 mL of ALP buffer, with 0.5 mL each time. 20 hours later, the cells were observed under the Olympus CKX41 optical microscope at 40× magnification.

[2] = system: Oct3/4; test: Oct3/4 immunocytochemistry after digitonin permeabilization (Test Example 2-1); type: cell-based, human; conditions: 5 μg/mL shikimic acid (water); permeabilized NHDF-Neonatal; day 4
Description: (§1) Then, 400× images were obtained using the Carl Zeiss Confocal microscope LSM510 by immunocytochemistry using Oct3/4 antibody (Genetex, GTX100622, ×200) and Alexa Fluor® 488 goat anti-rabbit IgG. The ratio of Oct3/4-positive cells was determined by analyzing the Carl Zeiss Confocal microscopic images obtained from the Oct3/4 ICC experiment, for 4 or more images per sample, 5 on average.

[3] = system: Oct3/4; test: Oct3/4 immunocytochemistry, shikimic acid at different concentrations (Test Example 2-2); type: cell-based, human; conditions: for Ratio of Oct3/4-positive cells (%) Mean: NHDF-Neonatal, day 8
Description: as §1

[4] = system: NHDF-Neonatal; test: Colony-forming ability of dermal cells, crystal violet (Test Example 4-2); type: cell-based, human
Description: (§2) On day 5 after subculturing, the cells (200 cells) were attached on a 60-mm plate. On day 17, the cells were washed with ice-cold PBS and then fixed with ice-cold methanol kept at −20° C. for 10 minutes. The cells were stained by treating for 5-10 minutes with a working solution, which had been prepared by diluting 1% crystal violet in an ethanol stock solution 1/10 with PBS, washed 4 times with PBS and then imaged. For quantitative analysis, the cells were eluted by treating with an elution buffer consisting of 50% ethanol, 40% DW, and 10% acetic acid for 5 minutes. Then, absorbance was measured at 580 nm after transferring 200 μL of the cells to a 96-well plate.

[5] = system: NHDF-Neonatal; test: Colony-forming ability of dermal cells, crystal violet (Test Example 4-1); type: cell-based, human; conditions: shikimic acid, concentration not given; absorbance 580 nm
Description: as §2, with “day 10” for “day 5”, “day 23,” for “day 17,”

[6] = system: NHDF-Neonatal; test: Proliferating ability of dermal cells, WST-1 (Test Example 5); type: cell-based, human; conditions: 5 μg/mL shikimic acid; WST-1, absorbance 450 nm
Description: 2,000 NHDF-Neonatal (CC-2509, Lonza, USA) were attached on a 96-well plate. […] Then, we were subculturing it for 7 days (as confluency becomes to 90% or below on 7th day). After 6 days later, 10 μL of WST-1 was treated and absorbance was measured at 450 nm.

[7] = system: alkaline phosphatase (ALP); test: Alkaline phosphatase (ALP) staining, shikimic acid at different concentrations (Test Example 3-2); type: cell-based, human; conditions: 10 μM or 10 mM shikimic acid; day 12; versus normal HDF
Source text: On day 5 after the treatment, the cells (100,000 cells) were attached on a 6-well plate.

Structure (SMILES): O=C(O)C1=C[C@@H](O)[C@@H](O)[C@H](O)C1 [shikimic acid]
- Expression of ALP (FIG. 12) [1]: increased expression of ALP
- Ratio of Oct3/4-positive cells (%) Mean [2]: 29%
- Expression of the Oct3/4 gene in HDF (FIG. 11) ([3]; 10 μM or 10 mM shikimic acid, compared to untreated normal HDF): increased expression of the Oct3/4 gene
- Ratio of Oct3/4-positive cells (%) Mean ([3]; 10 μM shikimic acid (water)): 29%
- Ratio of Oct3/4-positive cells (%) Mean ([3]; 10 mM shikimic acid (water)): 27%
- Percentage of the cells positive for the Oct3/4 gene, on average ([3]; shikimic acid in water, 10 μM and 10 mM): 27-29%
- Increase of colony-forming ability as compared to the negative control group (FIG. 17) ([4]; 10 μM, 50 μM, 100 μM, 1 mM or 10 mM shikimic acid, absorbance 580 nm, day 17): 1.27-5.06 times
- Crystal violet stained area, colony formation (FIG. 15) ([4]; 10 μM-10 mM shikimic acid, day 17, versus negative control): larger stained area
- Colony-forming ability, comparison of concentrations (FIG. 17) ([4]; 1 mM shikimic acid): the most increase in colony-forming ability
- Increase of colony-forming ability as compared to the negative control group (FIG. 16) [5]: about 3.8 times
- Increase of cell division as compared to the normal control group (FIG. 18) [6]: 2 times
- Expression of ALP (FIG. 13) [7]: the expression of ALP was increased remarkably
